Reference: patent US20250009697A1, “COMPOSITION FOR INCREASING AMOUNT OF FOOD INGESTED AND/OR IMPROVING ANOREXIA, AND COMPOSITION FOR ACTIVATING TRANSIENT RECEPTOR POTENTIAL ANKYRIN 1” (HOUSE FOODS GROUP INC., priority 2021, published 2025)

Experiments:
Type in all cases: cell-based
Mock cell = experiment: TRPA1 Activation Test 2: intracellular Ca2+ imaging assay 2-2, Mock cell; conditions: test sample 30 μM; Table 9
Procedure: (§1) A hTRPA1 stably expressing cell line in which expression of hTRPA1 had been induced in advance by a conventional method was prepared in a 96 well clear bottom plate, and the hTRPA1 activating action of rhein (produced by Tokyo Chemical Industry Co., Ltd.) was tested. Specifically, after each well was washed with PBS, 50 μL of an assay buffer (Hanks' balanced salt solution containing no calcium ion or magnesium ion that contained 1 mM of CaCl2 dihydrate, 20 mM of HEPES, and 0.1% BSA) containing calcium fluorescent indicator Calbryte™ 520 AM (produced by AAT Bioquest) in a final concentration of 4 μM was added, followed by incubating at 33° C. for 45 minutes. After washing with the assay buffer, 100 μL of the assay buffer was added to each well. This plate was set to FlexStation 3 (Molecular Devices, LLC), and a fluorescence intensity (excitation wavelength 490 nm, fluorescence wavelength 525 nm) at 31° C. was measured every two seconds, and 30 seconds after the start of the measurement, 100 μL of an assay buffer containing a test sample (allyl isothiocyanate (AITC) of positive control or rhein) which was prepared to have a certain final concentration or DMSO was added. Then, a well in which an assay buffer containing ionomycin (having a final concentration of 10 μM after the addition) instead of the test samples was added was also prepared as a reference for fluorescence intensity.
(§2) The measurement was continued from the start of the measurement up to 120 seconds, and the TRPA1 activation ability of the test samples was calculated in accordance with the following formula.
Activation rate (%)=(Fmax[s]−F0)/(Fmax[i]−F0)×100 • Fmax[s]: The maximum value of the fluorescence intensity when the test sample or positive control was added • F0: The average value of the fluorescence intensity for 20 seconds after the start of the measurement (base line) • Fmax[i]: The maximum value of the fluorescence intensity when ionomycin was added […]

Human TRPA1 (hTRPA1) [1] = biological target: T1, Human TRPA1 (hTRPA1) (Homo sapiens, UniProt O75762); experiment: TRPA1 Activation Test 1: intracellular Ca2+ imaging assay 1-1 to 1-3, hTRPA1 stably expressing cell line; conditions: test sample 30 μM; for TRPA1 activation rate, With antagonist: A-967079 1 μM
T1 construct: expressed in transfected cells
T1 sequence (O75762 whole entry): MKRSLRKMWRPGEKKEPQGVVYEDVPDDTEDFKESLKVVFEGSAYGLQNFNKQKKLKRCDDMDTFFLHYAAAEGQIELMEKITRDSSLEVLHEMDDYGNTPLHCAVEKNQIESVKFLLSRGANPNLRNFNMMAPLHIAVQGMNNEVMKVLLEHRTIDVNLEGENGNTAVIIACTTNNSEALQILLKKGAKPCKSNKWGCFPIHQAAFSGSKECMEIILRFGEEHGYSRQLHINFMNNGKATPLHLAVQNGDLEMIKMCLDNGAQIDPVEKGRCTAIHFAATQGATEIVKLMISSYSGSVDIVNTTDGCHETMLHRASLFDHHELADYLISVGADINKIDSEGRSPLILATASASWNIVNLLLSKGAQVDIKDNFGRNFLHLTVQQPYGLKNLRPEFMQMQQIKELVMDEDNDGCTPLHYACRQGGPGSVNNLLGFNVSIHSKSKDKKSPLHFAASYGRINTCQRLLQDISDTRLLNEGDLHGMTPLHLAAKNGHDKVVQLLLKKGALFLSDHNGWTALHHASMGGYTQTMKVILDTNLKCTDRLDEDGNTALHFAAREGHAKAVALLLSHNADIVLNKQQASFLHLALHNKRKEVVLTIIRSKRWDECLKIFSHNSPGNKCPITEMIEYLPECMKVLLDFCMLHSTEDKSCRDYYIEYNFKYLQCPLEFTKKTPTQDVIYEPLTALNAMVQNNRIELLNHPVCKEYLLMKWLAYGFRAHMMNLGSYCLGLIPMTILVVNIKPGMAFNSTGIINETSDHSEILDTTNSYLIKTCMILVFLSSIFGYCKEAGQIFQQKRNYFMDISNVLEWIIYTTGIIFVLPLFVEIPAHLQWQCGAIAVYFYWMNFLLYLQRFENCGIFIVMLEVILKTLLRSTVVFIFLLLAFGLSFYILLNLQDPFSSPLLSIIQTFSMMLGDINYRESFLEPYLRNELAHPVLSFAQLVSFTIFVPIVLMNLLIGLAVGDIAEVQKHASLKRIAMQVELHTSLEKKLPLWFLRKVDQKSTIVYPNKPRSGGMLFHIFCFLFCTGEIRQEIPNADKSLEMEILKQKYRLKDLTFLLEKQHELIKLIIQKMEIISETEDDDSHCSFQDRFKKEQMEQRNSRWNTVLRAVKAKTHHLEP
Procedure: (§3) DNAs encoding genes described in the following Table 2 were inserted into pcDNA 5/TO vector (Invitrogen) to prepare various expression vectors.
(§4) These expression vectors were transfected into T-REx™_293 cells (Invitrogen) by a conventional method using Lipofectamine LTX (Invitrogen). Then, various transfectants were cultured and cloned by a conventional method using Dulbecco's Modified Eagle Medium (DMEM, Nacalai Tesque Inc.), containing 10% fetal bovine serum (FBS, Cytiva), […] of hygromycin B, and 5 μg/mL of blasticidin S, as a drug selection medium to obtain a hTRPA1 stably expressing cell line, a hTRPV1 stably expressing cell line, and a hTRPM8 stably expressing cell line.
as §1, with “bottom plate (black),” for “bottom plate,”, “and a” for “and the”, “of the purified oxylipin or the R2 fraction (both were assumed to contain a compound having a molecular weight of 294) obtained in the above item 1” for “of rhein (produced by Tokyo Chemical Industry Co., Ltd.)”, “calcium ions” for “calcium ion”, “magnesium ions” for “magnesium ion”, “sample” for “sample (allyl isothiocyanate (AITC) of positive control or rhein)”
as §2
Activation rate (%)=(Fmax[s]−F0)/(Fmax[i]−F0)×100 • Fmax[s]: The maximum value of the fluorescence intensity when the test sample or the positive control was added • F0: The average value of the fluorescence intensity for 20 seconds after the start of the measurement (base line) • Fmax[i]: The maximum value of the fluorescence intensity when ionomycin was added
The TRPA1 activation ability was measured in the same manner as in the above (2) except that the R2 fraction or allyl isothiocyanate (AITC) was used as a test sample and the test was conducted with A-967079 (1 μM), which is a TRPA1-specific antagonist, or without A-967079. In addition, regarding the R2 fraction, the hTRPV1 stably expressing cell line or the hTRPM8 stably expressing cell line was used instead of the hTRPA1 stably expressing cell line to conduct the same test. Note that as positive controls, capsaicin was used for the hTRPV1 stably expressing cell line and icilin was used for the hTRPM8 stably expressing cell line.
The TRPA1 activation ability was measured in the same manner as in the above (2) except that each isolated compound or allyl isothiocyanate (AITC) was used as a test sample and the test was conducted with A-967079 (1 μM), which was a TRPA1-specific antagonist, or without A-967079.

Human TRPA1 (hTRPA1) [2] = biological target: T1, Human TRPA1 (hTRPA1); experiment: TRPA1 Activation Test 2: intracellular Ca2+ imaging assay 2-1 to 2-3, hTRPA1 stably expressing cell line; conditions: test sample 30 μM
Procedure: as §3, §4, §1, §2
(§5) Activation rate (%)=(Fmax[s]−F0)/(Fmax[i]−F0)×100 • Fmax[s]: The maximum value of the fluorescence intensity when the test sample or positive control was added • F0: The average value of the fluorescence intensity for 20 seconds after the start of the measurement (base line) • Fmax[i]: The maximum value of the fluorescence intensity when ionomycin was added
The TRPA1 activation ability of each test sample was measured in the same manner as in the above (2) except the test was conducted with A-967079 (1 μM), which is a TRPA1-specific antagonist, or without A-967079. In addition, intracellular Ca^2+ imaging assay was conducted in the same manner as in the above (2) except that a hTRPV1 stably expressing cell line, a hTRPM8 stably expressing cell line, or a Mock cell was used instead of the hTRPA1 stably expressing cell line. Note that capsaicin was used as positive control for the hTRPV1 stably expressing cell line, and icilin was used as positive control for the hTRPM8 stably expressing cell line.
A TRPA1 activation ability was measured in the same manner as in the above (2) by using, as a test sample, rhein or compounds described in the following Table 10, which had anthraquinone structures similar to rhein, at a concentration of 200 μM of the test sample.

Human TRPV1 (hTRPV1) [3] = biological target: T2, Human TRPV1 (hTRPV1) (Homo sapiens, UniProt Q8NER1); experiment: TRPA1 Activation Test 2: intracellular Ca2+ imaging assay 2-2, hTRPV1 stably expressing cell line; conditions: test sample 1 μM; Table 9
T2 construct: expressed in transfected cells
T2 sequence (Q8NER1 whole entry): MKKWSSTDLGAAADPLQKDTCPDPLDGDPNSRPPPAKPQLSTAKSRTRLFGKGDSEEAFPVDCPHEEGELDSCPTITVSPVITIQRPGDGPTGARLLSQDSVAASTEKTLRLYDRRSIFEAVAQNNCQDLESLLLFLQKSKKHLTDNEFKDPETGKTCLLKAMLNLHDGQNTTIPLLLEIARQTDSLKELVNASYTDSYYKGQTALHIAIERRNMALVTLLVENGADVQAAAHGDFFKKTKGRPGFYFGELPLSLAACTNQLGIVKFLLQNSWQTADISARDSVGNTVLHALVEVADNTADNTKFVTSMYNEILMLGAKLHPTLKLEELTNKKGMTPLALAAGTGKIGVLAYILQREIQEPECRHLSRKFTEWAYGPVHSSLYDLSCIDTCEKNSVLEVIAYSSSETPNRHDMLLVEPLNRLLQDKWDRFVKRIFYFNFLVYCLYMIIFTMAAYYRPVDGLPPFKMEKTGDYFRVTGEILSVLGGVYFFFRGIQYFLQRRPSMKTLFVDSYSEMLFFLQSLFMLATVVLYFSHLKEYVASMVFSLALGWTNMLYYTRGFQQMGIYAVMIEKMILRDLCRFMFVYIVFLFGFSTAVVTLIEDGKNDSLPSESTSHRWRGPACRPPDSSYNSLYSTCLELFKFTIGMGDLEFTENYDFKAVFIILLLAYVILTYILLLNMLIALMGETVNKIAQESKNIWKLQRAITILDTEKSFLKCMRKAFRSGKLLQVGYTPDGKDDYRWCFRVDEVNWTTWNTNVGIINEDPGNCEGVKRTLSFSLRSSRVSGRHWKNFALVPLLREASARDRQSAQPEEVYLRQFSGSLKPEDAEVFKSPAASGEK
Procedure: as §3, §4
as §1, with “This plate was set to FlexStation 3 (Molecular Devices, LLC), and a fluorescence intensity (excitation wavelength 490 nm, fluorescence wavelength 525 nm) at 31° C. was measured every two seconds, and 30 seconds after the start of the measurement, 100 μL of an assay buffer containing a test sample (allyl isothiocyanate (AITC) of positive control or rhein) which was prepared to have a certain final concentration or DMSO was added.” left out
as §2, §5
(§6) The TRPA1 activation ability of each test sample was measured in the same manner as in the above (2) except the test was conducted with A-967079 (1 μM), which is a TRPA1-specific antagonist, or without A-967079. In addition, intracellular Ca^2+ imaging assay was conducted in the same manner as in the above (2) except that a hTRPV1 stably expressing cell line, a hTRPM8 stably expressing cell line, or a Mock cell was used instead of the hTRPA1 stably expressing cell line. […]

Human TRPV1 (hTRPV1) [4] = biological target: T2, Human TRPV1 (hTRPV1); experiment: TRPA1 Activation Test 1: intracellular Ca2+ imaging assay 1-2, hTRPV1 stably expressing cell line; conditions: test sample 1 μM; Table 5
Procedure: as §3, §4
After washing with the assay buffer, 100 μL of the assay buffer was added to each well. […] Then, a well in which an assay buffer containing ionomycin (having a final concentration of 10 μM after the addition) instead of the test samples was added was also prepared as a reference for fluorescence intensity.
as §2

Human TRPM8 (hTRPM8) [5] = biological target: T3, Human TRPM8 (hTRPM8) (Homo sapiens, UniProt Q7Z2W7); experiment: TRPA1 Activation Test 1: intracellular Ca2+ imaging assay 1-2, hTRPM8 stably expressing cell line; conditions: test sample 5 μM; Table 5
T3 construct: expressed in transfected cells
T3 sequence (Q7Z2W7 whole entry): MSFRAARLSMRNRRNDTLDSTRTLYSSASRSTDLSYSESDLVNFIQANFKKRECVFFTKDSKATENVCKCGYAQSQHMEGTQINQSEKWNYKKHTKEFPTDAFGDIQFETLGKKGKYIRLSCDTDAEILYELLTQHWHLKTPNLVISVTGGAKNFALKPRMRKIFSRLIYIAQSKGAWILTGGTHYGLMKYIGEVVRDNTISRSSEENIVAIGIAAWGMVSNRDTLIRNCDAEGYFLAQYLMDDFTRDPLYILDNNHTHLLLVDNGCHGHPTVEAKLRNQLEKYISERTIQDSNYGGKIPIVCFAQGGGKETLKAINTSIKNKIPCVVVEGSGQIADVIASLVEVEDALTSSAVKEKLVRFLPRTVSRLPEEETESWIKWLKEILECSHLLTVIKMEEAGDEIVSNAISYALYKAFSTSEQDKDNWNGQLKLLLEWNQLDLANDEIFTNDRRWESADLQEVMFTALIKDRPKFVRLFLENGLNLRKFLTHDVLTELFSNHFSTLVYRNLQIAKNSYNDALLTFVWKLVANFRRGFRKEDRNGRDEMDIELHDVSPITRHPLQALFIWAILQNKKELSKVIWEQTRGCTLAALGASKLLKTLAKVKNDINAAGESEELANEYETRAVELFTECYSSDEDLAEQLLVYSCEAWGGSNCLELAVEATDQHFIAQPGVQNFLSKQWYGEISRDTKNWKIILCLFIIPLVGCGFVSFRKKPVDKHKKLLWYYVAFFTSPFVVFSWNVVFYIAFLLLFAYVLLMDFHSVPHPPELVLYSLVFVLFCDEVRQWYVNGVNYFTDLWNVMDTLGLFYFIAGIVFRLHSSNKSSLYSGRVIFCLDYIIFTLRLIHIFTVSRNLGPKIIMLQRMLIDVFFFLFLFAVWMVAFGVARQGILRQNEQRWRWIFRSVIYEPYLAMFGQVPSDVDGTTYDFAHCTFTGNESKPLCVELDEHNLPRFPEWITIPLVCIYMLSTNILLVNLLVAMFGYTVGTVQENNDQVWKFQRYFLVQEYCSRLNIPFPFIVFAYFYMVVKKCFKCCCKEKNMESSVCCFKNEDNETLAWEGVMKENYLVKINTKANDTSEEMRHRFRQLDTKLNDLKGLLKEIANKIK
Procedure: as §3, §4
A hTRPA1 stably expressing cell line in which expression of hTRPA1 had been induced in advance by a conventional method was prepared in a 96 well clear bottom plate (black), and a hTRPA1 activating action of the purified oxylipin or the R2 fraction (both were assumed to contain a compound having a molecular weight of 294) obtained in the above item 1 was tested. […] Then, a well in which an assay buffer containing ionomycin (having a final concentration of 10 μM after the addition) instead of the test samples was added was also prepared as a reference for fluorescence intensity. […]

Human TRPM8 (hTRPM8) [6] = biological target: T3, Human TRPM8 (hTRPM8); experiment: TRPA1 Activation Test 2: intracellular Ca2+ imaging assay 2-2, hTRPM8 stably expressing cell line; conditions: test sample 5 μM; Table 9
Procedure: as §3, §4
as §1, with “This plate was set to FlexStation 3 (Molecular Devices, LLC), and a fluorescence intensity (excitation wavelength 490 nm, fluorescence wavelength 525 nm) at 31° C. was measured every two seconds, and 30 seconds after the start of the measurement, 100 μL of an assay buffer containing a test sample (allyl isothiocyanate (AITC) of positive control or rhein) which was prepared to have a certain final concentration or DMSO was added.” left out
as §2, §5, §6

With C=CCN=C=S [AITC, allyl isothiocyanate, reference compound] the “Activation rate, Mock” value (Mock cell) was 6.40 ± 0.143%, the “TRPA1 activation rate, With antagonist” value (Human TRPA1 (hTRPA1) [1]; Table 4) was 1.30 ± 0.639% and the “TRPA1 activation rate, With antagonist” value (Human TRPA1 (hTRPA1) [1]; Table 6) was 1.44 ± 0.163%. The “TRPA1 activation rate, Without antagonist” value (Human TRPA1 (hTRPA1) [1]; Table 4) was 160 ± 2.58%, the “TRPA1 activation rate, Without antagonist” value (Human TRPA1 (hTRPA1) [1]; Table 6) was 128 ± 2.99% and the “TRPA1 activation rate, With antagonist” value (Human TRPA1 (hTRPA1) [2]; A-967079 1 μM, Table 8) was 15.7 ± 7.81 %. The “TRPA1 activation rate, With antagonist” value (Human TRPA1 (hTRPA1) [2]; A-967079, Table 11) was 0.811 ± 0.0386 %, the TRPA1 activation rate (Human TRPA1 (hTRPA1) [2]; Table 7) was 101 ± 3.66% and the “TRPA1 activation rate, Without antagonist” value (Human TRPA1 (hTRPA1) [2]; Table 8) was 104 ± 6.10%. For the same molecule, the “TRPA1 activation rate, Without antagonist” value (Human TRPA1 (hTRPA1) [2]; Table 11) was 115 ± 6.15%.
COc1cc(CNC(=O)CCCC/C=C/C(C)C)ccc1O [Capsaicin, capsaicin, reference compound] showed a TRPV1 activation rate (Human TRPV1 (hTRPV1) [3]) of 96.3 ± 3.24% and a TRPV1 activation rate (Human TRPV1 (hTRPV1) [4]) of 113 ± 1.16%.
In the case of O=C1NC(c2cccc([N+](=O)[O-])c2)=CCN1c1ccccc1O [Icilin, icilin, reference compound], the TRPM8 activation rate (Human TRPM8 (hTRPM8) [5]) is reported as 79.8 ± 1.71% and the TRPM8 activation rate (Human TRPM8 (hTRPM8) [6]) is reported as 104 ± 2.19^ %.
